Reference: patent publication US10975123B2, “Mutant Akt-specific capture agents, compositions, and methods of using and making” (California Institute of Technology, priority 2014, dated 2021)
Entries after “also recorded” stand apart in the source; their conditions may differ. Where a SMILES comes first, the peptide text is derived from it. [ ]: non-standard residue; d: D form.

How the values were obtained:
[1] = molecular target: T1, E17K PH Domain binding to PIP3 (Homo sapiens, UniProt P31749, E17K); test: PIP3 agarose inhibition assay, E17K; type: biochemical; conditions: ligand 2.38 μM (10x protein), protein 234 nM, western blot, in words
T1 construct: 2 μg of either wildtype or mutant PH Domain-GFP protein (234 nM); made in house; host or cells: HEK-293-6E (used as cell lysate, not purified)
T1 sequence (P31749 5-108 E17K limits assumed): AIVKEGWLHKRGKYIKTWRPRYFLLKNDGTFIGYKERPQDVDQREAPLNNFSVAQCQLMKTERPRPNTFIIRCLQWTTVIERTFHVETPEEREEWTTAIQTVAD
From the text: The yleaf ligand, the biligand, and the triligand were all tested for their ability to block the E17K PHD binding with PIP3. For this test, PIP3-coated resin (Echelon Biosciences) was used to mimic the PHD interaction with the cell membrane, and could be used to bind the protein as in an immunoprecipitation assay^22. The presence of an effective blocking compound would reduce the ability of the resin to capture the protein, and would thus appear as a diminished signal in the corresponding western blot assay. A control lane containing no capture agent was used to show baseline binding of the protein to the PIP3 resin. […] In an expanded study, we compared the amount of E17K and WT PH domain binding relative to the amount of added triligand (FIG. 5e).
PIP3 Agarose beads (Echelon) were used to detect for the inhibition of PH Domain binding to its substrate, PIP3, upon incubation with the anchor candidate peptide ligands. To test the inhibition of each of the ligands, anchor biligand and triligand, 20 μL of resin slurry was added to each of four tubes and washed three times with 1×TBS. Protein, 2 μg (234 nM) of E17K mutant, was preincubated for one hour at room temperature with either DMSO (no protein blank), anchor, biligand or triligand at 2.38 μM (10× in relation to protein) in 200 μL of 1×TBS. For the control, mutant PH Domain was incubated with 1×TBS and 1 μL […] to mimic the ligand conditions. These protein samples were then added to PIP3 agarose in a Spin-X tube and incubated at room temperature for two hours. The resin was washed three times with 1×TBS with 0.25% IGEPAL CA-630, spun out to dry completely, then denatured with 50 μL 3×SDS gel loading buffer for 10 min at 95° C. The gel loading buffer was spun out of the resin and detected via western blot as per the Streptavidin-Agarose Pulldowns. Inhibition was indicated by a decrease in the amount of PH Domain that was pulled down by the resin.
Expanded inhibition blots with either WT of E17K mutant protein were performed in a similar fashion. Twelve tubes of 20 μL of PIP3 agarose were washed three times with 1×TBS. 2 μg of either wildtype or mutant PH Domain-GFP protein (234 nM) in 200 uL 1×TBS were preincubated for 30 minutes with differing concentrations of triligand: 0.1 eq (23.4 nM), 1 eq (234 nM), 10 eq (2.34 μM), 100 eq (23.4 μM), and 1000 eq (234 μM). The protein and triligand solutions were then incubated with the PIP3 resin for 2 hours at room temperature. The resins were washed, eluted, and blotted as per all PH Domain western blots.

[2] = molecular target: T2, E17K mutant PH Domain (PHD) of Akt1 (Homo sapiens, UniProt P31749, E17K); test: Streptavidin-agarose immunoprecipitation (pulldown), E17K; type: binding; conditions: streptavidin agarose, 1xTBS, western blot band size, in words
T2 construct: The first 124 N-terminal amino acids from full length Akt1 were used as the PH Domain DNA; made in house; host or cells: E. coli
T2 sequence (P31749 1-124 E17K): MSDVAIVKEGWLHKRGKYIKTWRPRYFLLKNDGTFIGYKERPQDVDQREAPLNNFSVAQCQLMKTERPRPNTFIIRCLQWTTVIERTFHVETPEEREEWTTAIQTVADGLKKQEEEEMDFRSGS
Protocol: Four biligand candidates were chosen based on their hydrophobicity and sequence homology using principal component analysis (FIG. 25). Biligands were synthesized by coupling the 2° ligand onto Rink Amide Resin on the Titan peptide synthesizer. The amide group on the end of the Lys(N3) was capped by shaking the resin with 2 mL acetic anhydride, 2 mL NMP and 0.5 mL DIEA for 3×10 minutes, then washed with NMP. FMOC-Propargylglycine-Otbu (Pra) was clicked onto the Lys(N3) on the 2° ligand by incubating 2 eq of the Pra amino acid with 2 eq CuI and 2 eq ascorbic acid with 1 eq azide on resin in 20% piperidine/NMP for 3 hours. The resin was washed 5×4 mL with a chelating solution of 1 g sodium diethyldithiocarbamate in 20 mL NMP and 1 mL DIEA. The anchor was then built onto the 2° ligand on bead, and an N-terminal PEG5-biotin tag were added. Assays were performed exactly as for the anchor ligands, except for two key differences. The biligand assays were done with 6 ug of GST-tagged PHD protein, instead of the untagged PHD that was used in the anchor pulldowns. The pull-downs were also conducted out of 1% serum in 1×TBS, as opposed to just 1×TBS.
Pulldown assays were done on Streptavidin Agarose resin from Invitrogen. The resin was incubated with N-terminal biotinylated anchor peptide candidates identified via the ClusterLigand sequence analysis. The anchor candidate coated beads were then incubated with either the wildtype or mutant protein to compare the selectivity of the ligands, as well as the binding ability. The bound protein was eluted and western blotted to compare the amount of protein present for each sample.
Relative protein band sizes were analyzed to compare binding between the anchor candidates and were used to determine selectivity for either wildtype or mutant PH Domain (FIG. 11). […] Both of these ligands look fairly selective for their respective PH Domain.

## CC(C)C[C@@H](NC(=O)[C@H](N)Cc1ccc(O)cc1)C(=O)N[C@H](CCC(=O)O)C(=O)N[C@H](C)C(=O)N[C@H](Cc1ccccc1)C(N)=O [yleaf] (H-[dY][dL][dE][dA][dF]-NH2; N-terminus assumed)
[1]
  inhibition of E17K PH Domain binding to PIP3-coated resin: did not exhibit evidence of inhibition; also recorded: no change in E17K binding ability
[2]
  pulldown of E17K mutant PH Domain by biotinylated anchor candidates: a distinctively stronger binding to the E17K protein relative to the WT; also recorded: the greatest binding to the mutant
